Source: patent US9856225B2, “Substituted phenazines as antimicrobial agents” (University of Florida Research Foundation, Incorporated, priority 2013, dated 2018)
In brackets after ≈: the same amount, converted by molar mass. Several values for one entry are separate records, joined by “and”; a condition that tells them apart may be missing. Equal values may be shown once. Marks after values point to notes of the source that are not given here.

What was measured:
MRSA-2 biofilms [1] = assay: Biofilm eradication assay (MBEC); type: cell-based, Staphylococcus aureus; conditions: for Biofilm Eradication MBEC: MRSA-2
Description: Biofilm eradication assays. […] The protocol for the biofilm eradication assays was essentially the same as the protocols reported in Eun et al., J. Am. Chem. Soc., 2012, 134, 11322 and Ceri et al., J. Clin. Microbiol., 1999, 37, 1771. Biofilm eradication assays were essentially biofilm dispersion assays with the addition of a final treatment with fresh media (and incubation at 37° C. for 24 hours) instead of crystal violet staining. This final incubation allowed viable cells within the biofilm to grow. At the end of this final incubation in biofilm eradication assays, microtiter wells void of turbidity represented eradicated biofilms, and the lowest concentration at which no visible growth was observed was referred to as the minimum biofilm eradication concentration (MBEC). Potent biofilm eradicating small molecules are extremely rare (Fletcher et al., Tetrahedron, 2014, 70, 6373; Jennings et al., ChemBioChem, 2014, 15, 2211). For these experiments, MRSA-2 was selected as the model since MRSA-2 is a multidrug-resistant, biofilm-forming clinical isolate of Staphylococcus aureus (Priyaja et al., Cytotechnol., 2014, doi: 10.1007/s10616-014-9765-5).

[2] = tested on: Pseudomonas aeruginosa (PAO1); assay: MIC broth microdilution (CLSI), Luria Broth; type: cell-based; conditions: Table 1, PAO1, read-out: Pseudomonas aeruginosa MIC
Outline: (§1)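 Two-fold serial dilutions (0.10–100 μM, eleven points) in Luria Broth, each well inoculated with 10^5 cells from log-phase culture (OD600 0.5), per CLSI broth microdilution. DMSO vehicle up to 1% v/v as negative control; kanamycin positive control for the staphylococci.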

[3] = tested on: Staphylococcus epidermidis (ATCC 12228); assay: MIC broth microdilution (CLSI), Luria Broth; type: cell-based; conditions: for MIC: ATCC12228, Table 1, ATCC 12228, read-out: Staphylococcus epidermidis MIC; for fold more potent than compound 1: from MIC
Outline: as §1

MRSA-2 biofilms [4] = assay: MRSA-2 biofilm dispersion assay; type: cell-based; conditions: Staphylococcus aureus, 24 h, read-out: MRSA-2 biofilm dispersion EC50
MRSA-2 = assay: MIC against MRSA-2; type: cell-based; conditions: Staphylococcus aureus, read-out: MIC against MRSA-2
Description: Antibiotic Susceptibility Tests (MIC Assay Protocol). The minimum inhibitory concentration (MIC) for each compound described herein was determined by the broth microdilution method as recommended by the Clinical and Laboratory Standards Institute (CLSI) (Clinical and Laboratory Standards Institute. 2009. Methods for dilution antimicrobial susceptibility tests for bacteria that grow aerobically; approved standard, eighth edition (M7-A8)). In a 96-well plate, eleven two-fold serial dilutions of each compound were made in a final volume of 100 μL Luria Broth (one column served as a blank; see the MIC assay described herein). Each well was inoculated with 10^5 bacterial cells at the initial time of incubation, prepared from a fresh log phase culture (OD600 of 0.5). […] The concentration range tested for each compound during this study was 0.10 to 100 μM. DMSO served as the vehicle and negative control in each microdilution MIC assay. DMSO was serially diluted at the same concentration as the compounds with a top concentration of 1% v/v. Bacterial strains used: Staphylococcus aureus (ATCC 25923), Staphylococcus epidermidis (ATCC 12228) and Pseudomonas aeruginosa (PAO1). […]
Vancomycin's activity against MRSA-2. Vancomycin was also evaluated against MRSA-2 since vancomycin has been considered to be the drug of last resort against MRSA infections.

[5] = Hydrolysis stability in sterile water; type: physicochemical; conditions: 24 hours at 37° C., static, TLC and NMR
Description: Compound storage. Solid stocks of the compounds described herein were stored at −80° C. in vials sealed with PARAFILM. Between 2.0 and 4.5 milligrams of each compound was weighed out, and a 10 mM DMSO stock solution of each compound were prepared. DMSO stock solutions were stored at room temperature in the dark (e.g., wrapped in aluminum foil). At this concentration, a few compounds required gentle heating to completely solubilize. DMSO stock solutions were not subjected to any freeze-thaw cycles to prevent compound breakdown. The compounds were stable in DMSO for several weeks under these mild storage conditions, with the exception of pyocyanin. Pyocyanin is unstable in DMSO at room temperature after one day. […] DMSO stock solutions of about 2 milligrams of pyocyanin were made fresh each day. The hydrolysis stability of select compounds was also tested, e.g., by subjecting these compounds to conditions mimicking the biofilm assays described herein. In one set of exemplary experiments, 3.2 to 4.5 mgs of each of compounds 18a, 12a, 23a, and 21 were treated with 1 mL of sterile water to form a mixture. Each of the mixtures was allowed to be incubated for 24 hours at 37° C. under static conditions analogous to the S. aureus biofilm inhibition assays described herein. After 24 hours, each of the mixtures was extracted with dichloromethane and evaluated, using TLC and NMR, for hydrolysis of each of compounds 18a, 12a, 23a, and 21 to compound 11.

| SMILES | Biofilm Eradication MBEC (MRSA-2 biofilms [1]) | MIC [3] | stability to hydrolysis (to compound 11) [5] | also measured |
| --- | --- | --- | --- | --- |
| O=C(OCC(Cl)(Cl)Cl)Oc1c(Br)cc(Br)c2nc3ccccc3nc12 [Compound 27a] | 125 µM |  |  |  |
| Oc1c(Br)cc(Br)c2nc3ccccc3nc12 [Compound 11, 2,4-Dibromophenazin-1-ol] | 100-200^c μM | 0.78 µM to 1.56 µM and 0.28 µg/mL to 0.55 µg/mL |  | MIC [2]: > 100 µM; fold more potent than compound 1 [3]: 32 fold; MBEC:MIC ratio (MRSA-2 biofilms [1]; MRSA-2 biofilm vs planktonic): 64-128; EC50 (MRSA-2 biofilms [4]): 3.53 µM; MIC (MRSA-2): 1.56 µM (≈ 0.552 µg/mL) |
| O=C(Oc1c(Br)cc(Br)c2nc3ccccc3nc12)c1ccco1 [Compound 23a] | 62.5 to 100 µM |  | stable to hydrolysis |  |
| O=C(Oc1c(Br)cc(Br)c2nc3ccccc3nc12)c1ccccc1 [Compound 23, 2,4-Dibromophenazin-1-yl benzoate] |  | 1.56 µM and 0.72 µg/mL |  |  |
| CCC(=O)Oc1c(Br)cc(Br)c2nc3ccccc3nc12 [Compound 4a] | 125 µM |  |  |  |
| CC(=O)Oc1c(Br)cc(Br)c2nc3ccccc3nc12 [Compound 21, 2,4-Dibromophenazin-1-yl acetate] |  | 0.78 µM and 0.31 µg/mL | stable to hydrolysis | fold more potent than compound 1 [3]: 64 fold |
| O=C(Oc1c(Br)cc(Br)c2nc3ccccc3nc12)c1ccc(Br)cc1 [Compound 12a] |  |  | stable to hydrolysis |  |
| Cc1ccc(C(=O)Oc2c(Br)cc(Br)c3nc4ccccc4nc23)cc1 [Compound 18a] |  |  | stable to hydrolysis |  |
